Reference: patent US20260378560A1, “APPROACHES TO DESIGNING AND PERFORMING COMPRESSED BIOLOGICAL EXPERIMENTS AND SYSTEMS FOR IMPLEMENTING THE SAME” (EXVIVO LABS INC., priority 2023, published 2026)

Tests used:
[1] = system: library of cancer cell lines; test: Hit profile of cancer drugs across library of cancer cell lines (cell viability); assay type: cell-based; conditions: across cancer cell lines screened individually
Description: Total cell viability was measured for each cancer cell line using an Adenosine TriPhosphate (“ATP”) assay, and more specifically an ATP-based luminescence assay (i.e., CellTiter Glo). Each cancer drug was screened at multiple concentrations ranging from one nanomolar (nM) to ten micromolar (UM) in order to generate a dose-response curve and calculate a drug response score (“DRS”) for each cancer cell line. The DRS was calculated as a continuous function of multiple parameters of the non-linear dose-response curve, including the slope at the half-maximal effective concentration (also called “EC50”) and the top and bottom asymptotes of the dose-response curve. […]
Table I includes several examples of cancer drugs and their DRSs across each cancer cell line in the aforementioned experiment.

MOLT-4 = test: ATP-based luminescence cell viability (CellTiter Glo), drug response score, MOLT-4; conditions: MOLT-4, screened individually (Compress: None)
Text: (§1) As part of a screen, a drug could be screened at different concentrations ranging from a lowest concentration to a highest concentration. In such a scenario, multiple data structures may be obtained by the screening platform 210. […] With these multiple data structures, the analysis module 218 can generate a dose-response curve that describes the magnitude of the response of the biological target, as a function of exposure to different concentrations of the drug. Further, the analysis module 218 can calculate a metric that is indicative of the response of the biological target. In the event that the biological target is one of multiple biological targets that are introduced to the pools of drugs, the metric can be used by the screening platform 210 to better understand the relative magnitude of responses. One example of a metric is drug-response score (“DRS”). DRS can be calculated as a continuous function of multiple parameters of the non-linear dose-response curve, including the slope at the half-maximal effective concentration (also called “EC50”) and the top and bottom asymptotes of the dose-response curve. DRS can be calculated as follows: […]
(§2) where y is a continuous function of the variable dose x, a is the maximal response (i.e., the top asymptote of the curve), b is the slope of the curve, c is the IC50 (i.e., half-maximal inhibitory concentration), and d is the minimal response (i.e., the bottom asymptote of the curve). Other examples of metrics include those output by sigmoidal and Hill slide functions that, like DRS, incorporate multiple aspects of the dose-response curve into a continuous function.
Total cell viability was measured for each cancer cell line using an Adenosine TriPhosphate (“ATP”) assay, and more specifically an ATP-based luminescence assay (i.e., CellTiter Glo). […] The DRS was calculated as a continuous function of multiple parameters of the non-linear dose-response curve, including the slope at the half-maximal effective concentration (also called “EC50”) and the top and bottom asymptotes of the dose-response curve. […] After total cell viability was measured and DRS was calculated, the DRS of each cancer cell line in the pool was deconvolved for each cancer drug.
DRS for these anchor cell lines are bolded and italicized. […] Each pool can then be expressed as a polynomial of variables (cell lines in the pool) and constants (DRS value of the pool). […] When multiple values are calculated for the final target solved from the polynomials, then the anchor has a non-zero value that can be determined based on the difference in the calculated value of the final target. […]

REH [2] = test: ATP-based luminescence cell viability (CellTiter Glo), drug response score, REH; parameters: scale not given here; conditions: for DRS from deconvolution: Sample compression, 5 Pick 3 pools; for drug response score (DRS): screened individually (Compress: None)
CCRF-CFM = test: ATP-based luminescence cell viability (CellTiter Glo), drug response score, CCRF-CFM; parameters: scale not given here; conditions: Target compression
Text: as §1, §2
Total cell viability was measured for each cancer cell line using an Adenosine TriPhosphate (“ATP”) assay, and more specifically an ATP-based luminescence assay (i.e., CellTiter Glo). Each cancer drug was screened at multiple concentrations ranging from one nanomolar (nM) to ten micromolar (UM) in order to generate a dose-response curve and calculate a drug response score (“DRS”) for each cancer cell line. The DRS was calculated as a continuous function of multiple parameters of the non-linear dose-response curve, including the slope at the half-maximal effective concentration (also called “EC50”) and the top and bottom asymptotes of the dose-response curve. […] After total cell viability was measured and DRS was calculated, the DRS of each cancer cell line in the pool was deconvolved for each cancer drug.
DRS for these anchor cell lines are bolded and italicized. Anchors can be identified based on frequency of the cell lines in pools with high DRS versus low DRS. At a high level, an anchor is predicted to be the cell line with the lowest individual DRS. In order to deconvolute individual cell line DRS values from pool DRS values, the anchor can start with an assumed DRS value of zero. Each pool can then be expressed as a polynomial of variables (cell lines in the pool) and constants (DRS value of the pool). The DRS value of each cell line can then be solved for using the anchor value and overlapping polynomial expressions. When multiple values are calculated for the final target solved from the polynomials, then the anchor has a non-zero value that can be determined based on the difference in the calculated value of the final target.
Each pool represented a co-culture of three cell lines (“Target Compression”).

REH [3] = test: Cell viability (CellTiter Glo), compressed perturbation pools with informed pool design, SUM-based deconvolution, REH; parameters: scale not given here
Outline: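 Cells were exposed to cancer drugs at 1 nM–10 μM, and viability was read by ATP luminescence (CellTiter Glo) to fit dose-response scores. Pools were overlapping and class-informed: same-class drugs went to different cohorts, and PI3K was kept apart from MAPK inhibitors. Per-drug scores were recovered by additive SUM deconvolution, with the lowest-ranked drug anchored at zero where needed.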

Compound	Hits (hit profile) [1]	drug response score (DRS) (MOLT-4)	DRS from deconvolution (REH [2])	drug response score (DRS) (REH [2])	DRS from deconvolution (CCRF-CFM; 5 Pick 3 pools)	DRS from deconvolution (CCRF-CFM; 6 Pick 3 pools)	DRS from deconvolution (CCRF-CFM; 7 Pick 3 pools)	DRS, REH, SUM (REH [3])
N#Cc1ccnc(N2C(=O)CC[C@H]2C(=O)N(c2cncc(F)c2)[C@H](C(=O)NC2CC(F)(F)C2)c2ccccc2Cl)c1 [Ivosidenib]	None	0.20	0.48	0.60	1.15	0.89	1.01	–
C=CC(=O)Nc1cc(Nc2nccc(-c3cn(C)c4ccccc34)n2)c(OC)cc1N(C)CCN(C)C [Osimertinib]	–	–	–	–	–	–	–	0.00
CC1(C)CCC(CN2CCN(c3ccc(C(=O)NS(=O)(=O)c4ccc(NCC5CCOCC5)c([N+](=O)[O-])c4)c(Oc4cnc5[nH]ccc5c4)c3)CC2)=C(c2ccc(Cl)cc2)C1 [Venetoclax]	One	2.90	1.15	3.80	0.28	1.51	1.07	5.50
COc1cc2ncnc(Nc3ccc(F)c(Cl)c3)c2cc1OCCCN1CCOCC1 [Gefitinib]	–	–	–	–	–	–	–	1.12
Cc1[nH]c2ccccc2c1CCNCc1ccc(/C=C/C(=O)NO)cc1 [Panobinostat]	All	15.10	12.17	12.60	19.98	16.57	18.55	–
COc1c(OCCCN2CCOCC2)ccc2c1N=C(NC(=O)c1cnc(N)nc1)N1CCN=C21 [Copanlisib]	Multiple	9.44	12.99	13.24	15.66	15.88	15.03	–
